For assay [1], the target named is T1, hVR1 (Homo sapiens, UniProt Q8NER1).
T1 construct: expressed in transfected cells
As to the kind of experiment: Aequorin luminescence assay, hVR1 in CHO cells. The assay is classed as cell-based. The procedure:
(§1) All the plates for use in a day are set up at the same time. The first plate is used in the assay after 2.5 h incubation with coelenterazine h. Subsequent plates are used at about 10 min intervals. […] At the start of the assay, the medium containing coelenterazine h is removed and replaced with 100 μl of HBSS buffered to pH 7.4 with 10 mM HEPES containing test compounds where appropriate. Cells are incubated for at least 10 min at RT. They are then placed in the measuring chamber of a luminometer (Wallac Microbeta Jet). Agonist is injected in a volume of 20 μl HBSS and the luminescence signal is collected for 20 sec.

Assay [2] has as its system Rat DRG neurones. The following applies: inhibition of capsaicin response; from Wood et al (1988); read-out: IC50 (nM) (Ca uptake assay) Rat DRG neurones; cited from earlier work.
Assay [3] addresses T2, rVR1 (Rattus norvegicus, UniProt O35433).
T2 construct: expressed in transfected cells
As to the kind of experiment: Aequorin luminescence assay, rVR1 in CHO cells. The assay is classed as cell-based. The method, then:
as §1

The target in assay [4] is T3, human vanilloid receptor (Homo sapiens, UniProt Q8NER1).
T3 construct: expressed in transfected cells
The experiment in a line: Activation of human vanilloid receptor expressed in mammalian cells. It counts as cell-based.

Assay [5] has as its system Rat DRG neurones. As to the kind of experiment: 45Ca calcium uptake assay in primary cultures of DRG neurones. It counts as cell-based. The method, then:
Primary cultures of adult DRG neurones are prepared according to standard protocols [Wood et al., J. Neuroscience 8:3208-3220 (1988)]. Cells are plated at a density of 2000 per well on 96 well view plates pre-coated with poly-ornithine and laminin and cultured in Hams F14 supplemented with 100 ng/ml NGF for four days. On the day of the assay, the cells are washed eight times in a Denley cell washer with calcium/magnesium free HBSS plus 10 mM HEPES, pH7.4. After washing the wells contain approximately 75 μl of buffer. […] For negative control, capsaicin is omitted. Samples are incubated at RT for 10 min, then washed four times with HBSS/10 mM HEPES pH 7.4. The remaining buffer is removed from the wells and replaced with 25 μl of 0.1% SDS. After about 10 min 200 μl of Microscint 40 scintillant is added and samples are counted on a Packard Topcount.

The target of assay [6] is T1, hVR1. As to the kind of experiment: Fluorometric Fluo-3 assay using the FLIPR, hVR1 in CHO cells. It counts as cell-based.
Description: Cells resulting from Examples A1 or A2 are plated at a density of 50,000 cells/well in Costar Viewplates. The cells are incubated at 37° C. in a humidified atmosphere (5% CO2/95% air) for 24 h. Medium is removed by flicking the plates and replaced with 100 μl HBSS containing 2 μM Fluo-3, AM (Molecular Probes) in the presence of 2.5 mM probenicid (Sigma) and 0.02% pluronic acid (Molecular Probes). The cells are incubated at 37° C. in a humidified atmosphere (5% CO2/95% air) for 1 h. Plates are flicked to remove excess of Fluo-3, AM, washed twice with HBSS and refilled with 100 μl of HBSS containing screening compounds. Incubation in the presence of screening compounds lasts between 10 and 20 min. Plates are then placed in the cell plate stage of the FLIPR (Molecular Devices, Sunnyvale, Calif., USA). A baseline consisting in 5 measurements of 0.4 sec each (laser: excitation 488 nm at 0.6 W, CCD camera opening of 0.4 sec) is recorded.
The mark [7] stands for this setting: inhibition of capsaicin response, capsaicin 1 μM.

The structures appear in SMILES notation. Like-named read-outs stand apart in the source and are kept apart here.

T1 sequence (Q8NER1 whole entry): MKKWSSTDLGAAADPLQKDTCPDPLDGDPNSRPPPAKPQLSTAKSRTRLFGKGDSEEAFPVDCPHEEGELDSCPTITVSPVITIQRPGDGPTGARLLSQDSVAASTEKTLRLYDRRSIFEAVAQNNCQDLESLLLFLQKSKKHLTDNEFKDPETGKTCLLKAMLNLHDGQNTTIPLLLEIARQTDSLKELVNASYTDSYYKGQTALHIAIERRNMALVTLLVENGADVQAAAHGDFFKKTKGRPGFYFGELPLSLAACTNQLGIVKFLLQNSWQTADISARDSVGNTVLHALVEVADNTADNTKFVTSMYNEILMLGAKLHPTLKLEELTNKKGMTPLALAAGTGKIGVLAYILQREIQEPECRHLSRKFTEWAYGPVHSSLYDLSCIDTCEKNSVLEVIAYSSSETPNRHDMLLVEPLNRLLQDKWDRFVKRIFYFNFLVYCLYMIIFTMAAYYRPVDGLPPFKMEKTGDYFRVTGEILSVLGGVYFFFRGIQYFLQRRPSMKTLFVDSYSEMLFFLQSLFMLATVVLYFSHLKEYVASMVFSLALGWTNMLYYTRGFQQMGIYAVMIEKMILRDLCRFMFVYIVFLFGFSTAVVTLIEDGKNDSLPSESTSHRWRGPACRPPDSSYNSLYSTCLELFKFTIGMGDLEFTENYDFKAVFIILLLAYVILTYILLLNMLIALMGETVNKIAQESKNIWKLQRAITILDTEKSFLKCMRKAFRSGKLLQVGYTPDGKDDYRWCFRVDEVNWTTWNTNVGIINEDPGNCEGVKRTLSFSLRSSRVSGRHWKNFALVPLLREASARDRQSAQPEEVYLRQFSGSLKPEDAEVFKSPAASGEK
T3 sequence (Q8NER1 whole entry): as above
T2 sequence (O35433 whole entry): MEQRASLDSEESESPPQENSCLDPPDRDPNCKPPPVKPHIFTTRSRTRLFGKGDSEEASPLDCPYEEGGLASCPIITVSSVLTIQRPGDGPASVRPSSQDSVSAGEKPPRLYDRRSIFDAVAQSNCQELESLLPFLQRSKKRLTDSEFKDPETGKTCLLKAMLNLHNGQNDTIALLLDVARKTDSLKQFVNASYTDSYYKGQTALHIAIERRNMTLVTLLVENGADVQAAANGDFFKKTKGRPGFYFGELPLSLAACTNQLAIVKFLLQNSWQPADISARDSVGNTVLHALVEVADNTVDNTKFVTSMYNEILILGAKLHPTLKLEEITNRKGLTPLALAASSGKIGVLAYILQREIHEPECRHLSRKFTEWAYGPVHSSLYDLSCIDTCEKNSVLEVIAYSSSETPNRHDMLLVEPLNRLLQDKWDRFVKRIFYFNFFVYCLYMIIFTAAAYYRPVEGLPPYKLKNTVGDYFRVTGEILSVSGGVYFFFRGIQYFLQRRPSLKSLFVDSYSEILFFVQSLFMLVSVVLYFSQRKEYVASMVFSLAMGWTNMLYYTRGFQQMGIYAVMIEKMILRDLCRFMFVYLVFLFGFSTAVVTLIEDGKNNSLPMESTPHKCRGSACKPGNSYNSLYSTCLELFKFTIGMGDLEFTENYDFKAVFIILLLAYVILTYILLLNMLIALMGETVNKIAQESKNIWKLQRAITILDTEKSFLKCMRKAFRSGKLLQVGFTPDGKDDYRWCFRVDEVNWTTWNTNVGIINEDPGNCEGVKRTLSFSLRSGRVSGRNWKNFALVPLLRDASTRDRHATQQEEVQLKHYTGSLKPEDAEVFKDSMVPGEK

On to `N.N.N.N.N.N.N.N.N.N.N.N.N.N.[Cl-].[Cl-].[Cl-].[Cl-].[Cl-].[Cl-].[O-2].[O-2].[Ru+3].[Ru+3].[Ru+4]` [Rr, Ruthenium red], for which the values for the half-maximal inhibitory concentration (IC50) in assay [1] (setting [7]), in assay [2] and in assay [3] (setting [7]) were 220 ± 32 nM, 50 nM and 18 ± 8.3 nM, respectively. In addition, the “Blocking of capsaicin responses” value in assay [1] (measured as in Example B1, stated generally for the assays) was “effective blocker of capsaicin responses”.
Turning to `Oc1cc2c(cc1O)CN(C(=S)NCCc1ccc(Cl)cc1)CCC2` [Cz, Capsazepine], the “Block of activation by capsaicin, temperatures greater than 42° C. and pH less than 5.5” value in assay [4] is given as “blocked substantially or completely”. Further, the half-inhibitory concentration (IC50) came out at 800 ± 40 nM in assay [5], 130 ± 32 nM in assay [6], 120 ± 12 nM in assay [1] and 320 ± 110 nM in assay [3].
For `COc1cc(CNC(=O)CCCC/C=C/C(C)C)ccc1O` [Capsaicin], the “Activation of the human vanilloid receptor” value in assay [4] is “activated by capsaicin”. Besides, the EC50 in assay [5] (10 min) stood at 170 ± 19 nM.

As usually defined, the IC50 is the concentration that gives 50% inhibition. The EC50 is the concentration at which the effect is half-maximal.

Source of the values: patent publication US6406908B1, “Vanilloid receptor” (Novartis AG, priority 1999, dated 2002).
